Reference: patent US20210000783A1, “USE OF EXTRACT OF VEGETATION WATERS FOR TREATING DAMAGE TO THE CARDIOVASCULAR SYSTEM” (FATTORIA LA VIALLA DI GIANNI, ANTONIO E BANDINO LO FRANCO - …, priority 2017, published 2021)

Test system: zebrafish (Danio rerio) embryos
Test: Heart rate of zebrafish embryos with doxorubicin-induced cardiotoxicity
Format: in vivo
Conditions: doxorubicin alone 3 μg/ml
Experimental: (§1) The embryos were treated with the polyphenol concentrate of the present invention (sample A009), at the dilutions 1:100 and 1:500, alone or in association with Doxorubicin (3 μg/mL). A pre-treatment was performed with A009, followed by administration of Doxorubicin and A009+Doxorubicin co-treatment. NT=not-treated cells. ^∘∘∘=p<0.0001 with respect to not-treated embryos; ***=p<0.001 with respect to embryos treated with doxorubicin alone;
as §1, with “alone.” for “alone;”
To evaluate the cardioprotective effect of the polyphenol concentrate of the invention, the zebrafish was used in vivo as the animal model to study. In particular the experiments were performed on zebrafish (Danio rerio) embryos incubated for 24, 48 and 72 hours after fertilization. […]

## COc1cccc2c1C(=O)c1c(O)c3c(c(O)c1C2=O)C[C@@](O)(C(=O)CO)C[C@@H]3O[C@H]1C[C@H](N)[C@H](O)[C@H](C)O1 [doxorubicin]
48 hours, FIG. 2
  heart rate of zebrafish embryos: significantly reduces their heart rate
72 hours, FIG. 3
  heart rate of zebrafish embryos: significantly reduces their heart rate
